According to patent publication EP2518139A1, “Use of indirubin derivatives for producing pluripotent stem cells” (Universitätsklinikum Jena, priority 2011, dated 2012):

Assays:
JAK2 = target: T1, JAK2 (Homo sapiens, UniProt O60674); assay: Kinase profiling assay (ProQinase); type: biochemical; details: 1µM E738, 1µM ATP, recombinant protein kinase
T1 construct: purchased ProQinase
Protocol: (§1) Kinase Assay: The Kinase profiling assay was performed by ProQinase as previously described (Cheng et al.201 0).
(§2) Because E738 initially was designed as a protein kinase inhibitor, we asked if E738 induced dephoshorylation and degradation are caused by certain protein kinases. Thus we exploited protein kinase profiling containing several Smad-relative protein kinases like CDKs and GSK3ß to overview the inhibitory effect of E738 in vitro. The residual activities of kinases were measured by using recombinant protein kinases and proper substrates after treatment with 1µM E738 in the presence of 1µM ATP as our previously described. […] However the mechanism was still remained to elucidate. Recently, researchers argued that Raf kinase inhibitor may induce the activation of MAPKs in vitro and in vivo leading to the failure of cancer therapy (Hatzivassiliou nature 2010 464 431-436, Heidol cell 2010 140 209-221, Murphy PNAS 2010 107 9 4299-4304). We assumed that the indirubin activated MAPKs might be due to its inhibition against Raf kinase. Furthermore, the Lin et. al. described Stat3 inhibitor could disrupt TGFß signaling (Lin oncogene 200928 961-972). Therefore we included Raf and Stat3-relative protein kinases, like Jak, Kit and Src, in this small screening.

KIT = target: T2, KIT (Homo sapiens, UniProt P10721); assay: Kinase profiling assay (ProQinase); type: biochemical; details: 1µM E738, 1µM ATP, recombinant protein kinase
T2 construct: purchased ProQinase
Protocol: as §1, §2

Src = target: T3, Src (Homo sapiens, UniProt P12931); assay: Kinase profiling assay (ProQinase); type: biochemical; details: 1µM E738, 1µM ATP, recombinant protein kinase
T3 construct: purchased ProQinase
Protocol: as §1, §2

b-Raf = target: T4, b-Raf (Homo sapiens, UniProt P15056); assay: Kinase profiling assay (ProQinase); type: biochemical; details: 1µM E738, 1µM ATP, recombinant protein kinase
T4 construct: purchased ProQinase
Protocol: as §1, §2

Stat3 = assay: Immunoblot of p-Stat3 in HeLa cells; type: cell-based, human; details: 1 h, BMP2 (100ng/mL), already from 0.1µM
Protocol: (§3) Western blot:: Cell extracts were homogenized in Urea-Lysis buffer (1mM EDTA,0.5% Triton X-100), 5mM NaF, 6M Urea, 1mM Na3VO4, 10µg/mL Pepstatin, 100µM PMSF and 3µg/mL Aprotinin in PBS). Enhanced chemiluminescence (ECL) Western blot analysis was performed. 20-40µg of total protein was resolved on 10% SDS-PAGE gels and immunoblotted with specific antibodies. Primary antibodies were incubated at a 1:1,000 dilution in TBS (pH 7.5) with 0.1% Tween-20 and 5% BSA/nonfat milk with gentle agitation overnight at 4°C. The proper secondary antibodies were incubated in TBS (pH 7.5) with 5% BSA/nonfat milk and 0.1 % Tween-20 at a 1:5,000 dilution for 1 h at room temperature.
To assess the effect of E738 on Wnt and Stat3 pathway in mammalian cellular context, HeLa cells were treated with E738 at increasing concentrations for 1 h. Here E804 was used as reference because of its well-known inhibition of Stat3 and Wnt. The antibodies of p-Stat3 and non-phosphorylation-ß-Catenin (NP-ß-Catenin, Ser33/37/Thr41), which can provide a convenient positive band if GSK3B is inhibited, were recruited to substantiated our in vitro results. […] With the stimulation of FCS, we also observed the similar regulation on Stat3 and MAPKs pathways depicted in Fig. 8.

[1] = test system: mono-, di- and poly-ubiquitins; assay: Immunoblot of ubiquitins in HeLa cells; type: cell-based, human; details: BMP-stimulated HeLa, 24h; MG132 5µM, E738 (1µM)
Protocol: as §3
Ubiquitin-proteasome degradation system is the major route to protein degradation. To identify if indirubin-induced degradation is conducted by proteasome, we utilized MG132, a general proteasome inhibitor, to characterize the role of proteasome in degradation. We found 5µM MG132 was sufficient to rescue the E738 mediated Smad1/5/8 […] 24h after treatment (Fig. 5E and 5F). […] Thus we interpreted that E738 might be able to promote degradation of polymerased ubiquintins through activating the formation of complexes with certain substrates, speculatively like Smad1/2/3/5/8, leading to accelerate the recycling of mono-ubiquitin, while MG132 blocked the degradation of these complexes and arrest such recycling. […]

tumor cells = assay: MTT assay, tumor cells; type: cell-based; details: various cancer cell lines, read-out: IC50-values, tumor cells growth
HFF = assay: iPS-Colony formation and Alkaline phosphatases staining in HFF; type: cell-based, human; details: E738 (0.5µM) 8 days, Alkaline phosphatases staining after 14 days E738 (1µM)
Protocol: Cell culture: HeLa and Hek293T were cultured in DMEM (PAA) containing 10% FCS (PAA) and 1% PS (PAA). HFF (human foreskin fibroblasts) were cultured in DMEM containing 15% FCS and 1%PS. Mouse embryonic fibroblasts were cultured in DMEM containing 10% NCS (LifeTechnologies) and 1% PS. The cells were maintained under 5% CO2 at 37°C in a humidified atmosphere. The cells were treated with various compounds as indicated in context. The images were taken at indicated time points using a Keyence digital-microskop BZ-800.
iPS-Colony formation and Alkaline phosphatases staining in HFF: 10^5 cells/well HFF at passage 4 were seeded in a 12-well plate in 15% FCS. Next day, the cells were treated with indicated concentrations of E738 without change of medium for indicated times. After the appearance of morphologic transition and stem cell like colony formation, alkaline phosphatase staining was performed using StemTAG Alkaline phosphatase staining kit (Biocat, Germany) according to the manufacturers protocol.

Sox2 = assay: Immunoblot of Sox2 expression in HFF cells; type: cell-based, human; details: 2h
Nanog = Nanog overexpression in Nanog-GFP Hek293T cells; type: cell-based, human; details: 1µM E738, 24h

T3 sequence (P12931 whole entry): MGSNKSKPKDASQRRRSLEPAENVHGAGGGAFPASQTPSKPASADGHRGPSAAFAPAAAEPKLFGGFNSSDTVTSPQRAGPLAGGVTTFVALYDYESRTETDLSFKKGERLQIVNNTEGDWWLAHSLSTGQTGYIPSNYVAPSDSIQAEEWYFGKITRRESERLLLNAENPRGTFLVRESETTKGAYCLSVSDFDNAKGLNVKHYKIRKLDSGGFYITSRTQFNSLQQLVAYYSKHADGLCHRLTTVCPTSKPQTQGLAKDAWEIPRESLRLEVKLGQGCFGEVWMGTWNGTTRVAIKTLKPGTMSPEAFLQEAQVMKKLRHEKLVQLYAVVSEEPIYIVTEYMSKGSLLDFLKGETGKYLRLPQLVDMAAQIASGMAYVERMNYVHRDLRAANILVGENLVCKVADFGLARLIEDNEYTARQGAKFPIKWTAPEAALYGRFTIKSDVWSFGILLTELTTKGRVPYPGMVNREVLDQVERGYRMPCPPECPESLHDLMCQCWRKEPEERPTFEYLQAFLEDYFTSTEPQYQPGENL
T2 sequence (P10721 26-976): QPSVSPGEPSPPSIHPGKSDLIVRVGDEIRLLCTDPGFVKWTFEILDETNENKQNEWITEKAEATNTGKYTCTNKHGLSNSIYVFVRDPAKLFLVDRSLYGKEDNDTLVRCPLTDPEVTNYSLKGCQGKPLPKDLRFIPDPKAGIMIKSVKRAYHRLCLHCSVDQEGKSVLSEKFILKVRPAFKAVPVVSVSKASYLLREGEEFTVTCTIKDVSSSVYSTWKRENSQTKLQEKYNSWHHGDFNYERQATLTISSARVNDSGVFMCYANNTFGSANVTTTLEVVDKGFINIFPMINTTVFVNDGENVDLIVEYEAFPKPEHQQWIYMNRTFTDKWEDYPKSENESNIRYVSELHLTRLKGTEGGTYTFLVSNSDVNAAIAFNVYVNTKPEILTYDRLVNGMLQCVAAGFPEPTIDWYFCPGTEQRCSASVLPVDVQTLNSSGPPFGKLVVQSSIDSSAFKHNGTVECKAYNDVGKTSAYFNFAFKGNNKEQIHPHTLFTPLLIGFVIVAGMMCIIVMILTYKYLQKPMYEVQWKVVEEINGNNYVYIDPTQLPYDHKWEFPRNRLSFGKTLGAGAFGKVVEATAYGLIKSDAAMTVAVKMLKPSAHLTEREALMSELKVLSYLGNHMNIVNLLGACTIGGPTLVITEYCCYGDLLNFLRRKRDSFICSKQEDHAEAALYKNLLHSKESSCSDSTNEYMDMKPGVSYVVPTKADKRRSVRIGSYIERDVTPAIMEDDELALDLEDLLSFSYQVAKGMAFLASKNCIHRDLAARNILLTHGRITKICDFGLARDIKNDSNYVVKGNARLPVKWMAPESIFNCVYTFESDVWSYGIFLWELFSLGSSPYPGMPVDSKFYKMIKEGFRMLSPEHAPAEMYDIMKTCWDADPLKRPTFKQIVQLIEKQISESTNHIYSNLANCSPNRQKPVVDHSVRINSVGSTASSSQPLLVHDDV
T1 sequence (O60674 whole entry): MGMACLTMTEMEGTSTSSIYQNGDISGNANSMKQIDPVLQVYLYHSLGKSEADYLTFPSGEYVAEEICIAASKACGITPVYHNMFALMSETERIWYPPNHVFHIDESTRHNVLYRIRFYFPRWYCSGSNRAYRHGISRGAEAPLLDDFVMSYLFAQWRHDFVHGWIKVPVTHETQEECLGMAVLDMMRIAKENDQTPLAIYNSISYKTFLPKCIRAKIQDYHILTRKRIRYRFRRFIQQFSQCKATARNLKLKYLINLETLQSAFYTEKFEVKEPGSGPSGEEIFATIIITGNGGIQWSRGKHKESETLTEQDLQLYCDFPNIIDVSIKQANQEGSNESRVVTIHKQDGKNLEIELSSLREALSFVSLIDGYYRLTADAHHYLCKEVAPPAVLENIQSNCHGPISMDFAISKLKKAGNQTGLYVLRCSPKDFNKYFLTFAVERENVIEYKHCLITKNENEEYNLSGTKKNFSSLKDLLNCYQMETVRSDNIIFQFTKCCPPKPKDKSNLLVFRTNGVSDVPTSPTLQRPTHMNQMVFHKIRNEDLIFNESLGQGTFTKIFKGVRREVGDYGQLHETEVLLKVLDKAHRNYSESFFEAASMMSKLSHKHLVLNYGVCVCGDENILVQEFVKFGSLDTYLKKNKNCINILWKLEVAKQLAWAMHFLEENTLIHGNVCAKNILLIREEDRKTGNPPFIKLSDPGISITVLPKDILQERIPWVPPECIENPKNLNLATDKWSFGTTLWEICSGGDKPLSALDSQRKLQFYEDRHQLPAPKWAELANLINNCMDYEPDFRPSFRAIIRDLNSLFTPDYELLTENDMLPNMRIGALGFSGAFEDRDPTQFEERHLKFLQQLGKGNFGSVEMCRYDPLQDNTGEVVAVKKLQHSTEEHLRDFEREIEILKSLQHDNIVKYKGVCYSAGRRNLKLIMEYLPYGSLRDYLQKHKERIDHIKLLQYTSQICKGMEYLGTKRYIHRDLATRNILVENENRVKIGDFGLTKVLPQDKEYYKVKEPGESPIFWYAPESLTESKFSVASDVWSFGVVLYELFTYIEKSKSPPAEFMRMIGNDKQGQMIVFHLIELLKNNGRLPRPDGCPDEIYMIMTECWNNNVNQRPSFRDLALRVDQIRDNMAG
T4 sequence (P15056 whole entry): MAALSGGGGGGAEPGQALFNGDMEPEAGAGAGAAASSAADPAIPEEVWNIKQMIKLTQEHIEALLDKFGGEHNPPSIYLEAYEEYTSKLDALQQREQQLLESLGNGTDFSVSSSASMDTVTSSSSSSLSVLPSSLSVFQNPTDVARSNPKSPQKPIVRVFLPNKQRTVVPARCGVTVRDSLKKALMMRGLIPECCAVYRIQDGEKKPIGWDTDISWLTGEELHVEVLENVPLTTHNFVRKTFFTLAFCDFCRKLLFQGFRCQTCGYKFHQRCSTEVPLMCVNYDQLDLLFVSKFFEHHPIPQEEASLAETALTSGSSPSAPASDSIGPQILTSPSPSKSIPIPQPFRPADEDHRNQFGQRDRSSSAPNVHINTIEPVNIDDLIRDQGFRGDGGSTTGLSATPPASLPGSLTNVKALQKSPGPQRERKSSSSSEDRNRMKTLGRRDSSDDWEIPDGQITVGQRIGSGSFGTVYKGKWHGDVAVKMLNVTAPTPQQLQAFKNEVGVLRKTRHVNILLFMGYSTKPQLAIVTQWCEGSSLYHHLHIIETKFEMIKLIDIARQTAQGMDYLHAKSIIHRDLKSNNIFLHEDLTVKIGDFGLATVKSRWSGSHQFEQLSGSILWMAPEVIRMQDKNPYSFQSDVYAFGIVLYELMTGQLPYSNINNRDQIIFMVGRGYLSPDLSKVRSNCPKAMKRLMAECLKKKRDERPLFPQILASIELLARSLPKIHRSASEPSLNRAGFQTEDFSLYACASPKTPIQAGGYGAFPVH

COc1ccc2c(c1)C(=C1Nc3ccccc3C1=NOCC(O)CO)C(=O)N2 (stereo not shown) [E738]
inhibition of JAK2 (JAK2): generally inhibited | inhibition of KIT (KIT): generally inhibited | inhibition of Src (Src): generally inhibited | blocked activity of b-Raf (b-Raf): 57% | phosphorylation of Stat3 (Stat3): repressed phosphorylation of Stat3 | mono-, di- and poly-ubiquitins [1]: more mono-ubiquitin, but less di- and poly-ubiquitins | IC50 (tumor cells): < 1000 nM | formation of ESC-like colony (HFF): induces the formation of ESC-like colony from HFF | expression of Sox2 (Sox2): stimulates expression of Sox2 | Nanog-overexpression (Nanog): promotes Nanog-overexpression
